Several values for one entry are separate records, joined by “and”; a condition that tells them apart may be missing. Equal values may be shown once. Read-outs that look alike come from different tables or passages of the source.
Assays:
[1] = system: vaccinia virus (strain Copenhagen); test: microbe, parasite or virus in culture; assay type: cell-based
[2] = system: vaccinia virus (strain Copenhagen); assay type: cell-based
[3] = in vitro; conditions: human, CC50, HeLa cell monolayers; 24 h incubation; WST-1
[4] = system: HeLa cells; conditions: HeLa cell monolayers; 24 h incubation; WST-1
[5] = system: vaccinia virus Western Reserve (WR) strain; test: microbe, parasite or virus in culture; assay type: cell-based
[6] = system: vaccinia virus (strain Copenhagen); assay type: cell-based; conditions: 0.2 μM
[7] = system: vaccinia virus (strain Copenhagen); assay type: cell-based; conditions: 0.2 μM; remark: listed apart in the source
[8] = system: myxoma virus; assay type: cell-based; conditions: HeLa cells, 2 μM, MOI 0.1
[9] = system: vaccinia virus gene transcription (D12, A1, A17); assay type: cell-based; conditions: 2 μM
[10] = system: vaccinia virus DNA replication; assay type: cell-based
[11] = system: vaccinia virus protein expression (D12, G8, H3); assay type: cell-based; conditions: 2 μM
[12] = system: Plasmodium vinckei petteri; conditions: mice; ref Adovelande and Schrevel, 1996; cited from earlier work
[13] = system: vaccinia virus; conditions: previously reported against vaccinia; ref Yang et al., 2005; cited from earlier work

With Nc1ccn(C[C@@H](CO)OCP(=O)(O)O)c(=O)n1 [Cidofovir] the IC50 ([1]; Orthopoxvirus vaccinia, HeLa) was roughly 110 µM, the “reduction in virus titres” value [2] was “no effect on vaccinia replication” and the CC50 [3] was greater than 1000 µM.
Work on C/C=C/[C@H]1O[C@@](O)([C@@H](C)[C@H](O)[C@H](C)[C@H]2OC(=O)/C(OC)=C/C(C)=C/[C@@H](C)[C@@H](O)[C@@H](CC)[C@@H](O)[C@H](C)C/C(C)=C/C=C/[C@@H]2OC)C[C@@H](O[C@H]2C[C@@H](O)[C@H](OC(N)=O)[C@@H](C)O2)[C@@H]1C [Concanamycin A] yielded a Selectivity index [1] of 7941, an IC50 ([1]; Orthopoxvirus vaccinia, HeLa) of roughly 0.0017 µM and a CC50 [3] of 13.5 ± 5.7 µM.
With C/C=C/[C@H]1O[C@@](O)([C@@H](C)[C@H](O)[C@H](C)[C@H]2OC(=O)/C(OC)=C/C(C)=C/[C@@H](C)[C@@H](O)[C@@H](C)[C@@H](O)[C@H](C)C/C(C)=C/C=C/[C@@H]2OC)C[C@@H](O[C@H]2C[C@@H](O)[C@H](OC(N)=O)[C@@H](C)O2)[C@@H]1C [Concanamycin B] the IC50 [1] was ~0.011 µM and 0.011 µM and the CC50 [4] was 21.4 ± 0.6 µM.
With C/C=C/[C@H]1O[C@@](O)([C@@H](C)[C@H](O)[C@H](C)[C@H]2OC(=O)/C(OC)=C/C(C)=C/[C@@H](C)[C@@H](O)[C@@H](CC)[C@@H](O)[C@H](C)C/C(C)=C/C=C/[C@@H]2OC)C[C@@H](O[C@H]2C[C@@H](O)[C@H](O)[C@@H](C)O2)[C@@H]1C [Concanamycin C] the IC50 [1] was ~0.0028 µM and 0.0028 µM and the CC50 [4] was 15.6 ± 3.2 µM.
With CC[C@@]1([C@@H]2O[C@@H]([C@H]3O[C@@](O)(CO)[C@H](C)C[C@@H]3C)C[C@@H]2C)CC[C@H]([C@]2(C)CC[C@]3(C[C@H](O)[C@@H](C)[C@@H]([C@@H](C)[C@@H](OC)[C@H](C)C(=O)O)O3)O2)O1 [Monensin] the Selectivity index [1] was 1065, the IC50 ([1]; Orthopoxvirus vaccinia, HeLa) was roughly 0.0216 µM and the “reduction in virus titres” value [2] was “approximately 20 fold”. For the same compound, the CC50 [3] was 23 ± 2.9 µM.
With CO[C@@H]1C[C@@H](C[C@H]2CC[C@H](C)[C@H]([C@@H](C)C(=O)O)O2)O[C@]2(O[C@](C)([C@H]3CC[C@@](C)([C@@H]4O[C@@H]([C@H]5O[C@@](O)(CO)[C@H](C)C[C@@H]5C)C[C@@H]4C)O3)C[C@H]2C)[C@@H]1C [Nigericin] the Selectivity index [1] was 1038 (Cop), the IC50 ([1]; Orthopoxvirus vaccinia, HeLa) was roughly 0.0079 µM and the Selectivity index [5] was 421 (WR). The IC50 ([5]; Vaccinia virus Western Reserve, HeLa) was roughly 0.0195 µM, the “reduction of virus replication, compound added 4 hpi” value [2] was roughly 1600 fold and the “vaccinia replication after removal of compound at 1 hpi” value [2] was “vaccinia replication approached the level of untreated controls”. For the same compound, the “decrease in viral titres” value ([2]; 0.2 μM) was roughly 10 fold, the “decrease in viral titres” value [6] was roughly 10 fold and the “decrease in viral titres” value [7] was roughly 10 fold. The “reduction in virus titres” value [8] was 676 fold, the “reduction of A1 (intermediate) transcript expression” value [9] was roughly 94% and the “reduction of A17 (late) transcript expression” value [9] was roughly 98%. The “reduction of D12 (early) transcript expression” value [9] was roughly 82%, the “abundance of the A1 gene at 8 hpi (viral DNA replication)” value ([10]; 2 μM) was “no significant increase in the abundance of the A1 gene” and the “D12 (early) protein expression” value [11] was “partially inhibited”. For the same compound, the “G8 (intermediate) protein expression” value [11] was “very little G8 detected”, the “H3 (late) protein expression” value [11] was “unable to detect H3 protein” and the “dosages at which toxicity was observed” value [12] was “above 10 mg kg^−1”.
For O=C(NN1C(=O)[C@@H]2[C@@H]3C=C[C@@H]([C@H]4C[C@@H]34)[C@@H]2C1=O)c1ccc(C(F)(F)F)cc1 [ST-246], the IC50 ([1]; Orthopoxvirus vaccinia, HeLa) is listed as roughly 0.0094 µM, the “reduction in virus titres” value [2] is listed as “approximately 7.4 fold” and the IC50 [13] is listed as 0.01 µM. For the same compound, the CC50 [3] was greater than 1000 µM.
With Nc1ccn([C@@H]2O[C@H](CO)[C@@H](O)[C@@H]2O)c(=O)n1 [araC, cytosine arabinoside] the “abundance of the A1 gene at 8 hpi (viral DNA replication)” value ([10]; 50 μg/mL) was “no significant increase in the abundance of the A1 gene”.

From PMC9533862 (Antiviral Research, 2010)
